Test results from US20190046467A1, “COMPOSITIONS AND METHODS FOR INHIBITING BIOFILM-FORMING BACTERIA” (priority 2015, published 2019).

Columns and labels:
[1] = system: Pseudomonas aeruginosa PAO1 fabI mutant biofilms; assay: MBEC biofilm killing assay (BacTiter-Glo), fabI mutants; format: cell-based; conditions: triclosan 100 μM alone; 6 hours treatment
Procedure: (§1) The MBEC™ Assay is a high throughput screening assay that allows testing of the efficacy of antimicrobials against biofilms. The MBEC™ Assay's Biofilm Inoculator (referred above as “the lid”) consists of a plastic lid with 96 pegs and a corresponding base with 96 individual wells. Biofilms are grown on the pegs under batch conditions (no flow of nutrients into or out of an individual well) with gentle mixing. The established biofilm is then transferred to a new 96 well plate for antimicrobial efficacy testing. The assay design allows for the evaluation of different of microorganisms, simultaneous testing of multiple biocides at multiple concentrations with replicate samples, making it an efficient screening tool. (Innovotech website http://www.innovotech.ca/products_mbec.php)) […]
(§2) Two milliliter overnight cultures of Pseudomonas aeruginosa fabI mutants were grown in MHII medium shaking at 220 rpm at 37° C. […] Cell culture was diluted to a 0.001 absorbance at 600 nm in 10% Mueller-Hinton II medium (MHII) and used to inoculate the bottom of MBEC™ assay plates (Innovotech, Edmonton, Canada). […] Following a 5 minute rinse in MHII, lids were exposed to BacTiter-Glo™ (Promega) and luminescence read in a microtiter plate reader (EnVision® Multilabel Plate Reader, Perkin Elmer, Waltham, USA). […]

[2] = system: 509.5=PAO509 expressing triABC mutant biofilms; assay: MBEC biofilm killing assay (BacTiter-Glo), mutant 509.5; format: cell-based, Pseudomonas aeruginosa; conditions: triclosan 100 μM alone or with tobramycin 250 μg/mL; 6 hours treatment
Procedure: as §1
as §2, with “aeruginosa” for “aeruginosa fabI”

[3] = system: 509=PAO1_Δ(mexAB-oprM)_Δ(mexCD-oprJ)_Δ(mexEF-oprN)_Δ(mexJK)_Δ(mexXY) mutant biofilms; assay: MBEC biofilm killing assay (BacTiter-Glo), efflux pump deletion mutant 509; format: cell-based, Pseudomonas aeruginosa; conditions: triclosan 100 μM alone or with tobramycin 250 μg/mL; 6 hours treatment
Procedure: as §1
as §2, with “aeruginosa” for “aeruginosa fabI”

Question: `Oc1cc(Cl)ccc1Oc1ccc(Cl)cc1Cl` [triclosan, Triclosan] was tested. Which “susceptibility of fabI mutant biofilms” value [1] did it give?
Answer: Its value is “triclosan resistance”.

Question: And the “percentage of 509.5 mutant biofilms killed” value [2]?
Answer: Its value is “around 50%”.

Question: What about the “susceptibility of 509 mutant biofilms” value [3] of the same molecule?
Answer: The value was “susceptible”.
